We go through two compounds from US9295638B2, “Prevention and treatment of cardiovascular diseases using systems and methods for transdermal nitric oxide delivery” (priority 2012, dated 2016).

The structures appear in SMILES notation.

The test system of series [1] is micro-capillary blood flow to skin. Description: Laser Doppler capillary blood flow in humans, 10,000 ppm NO in closed chamber (Example 6). Conditions: applied to the skin at 1/10% in alcohol. Type of series: in vivo. The text has this: The formulation used in these studies contained nitric oxide dispersed in a lipid matrix. […] Nitric oxide is a very rapid acting molecule, and these studies used a system that employed laser Doppler with a covered chamber. The formulation was placed into the chamber and then attached to the skin by an adhesive layer on the covering. This provided a stable measuring device as determined by multiple normal evaluations of the capillary blood flow without treatment of nitric oxide.
A known positive control, methyl nicotinate, was applied to the skin at a concentration of 1/10% in alcohol. […] The vascular dynamics are such that when the blood vessels dilate physical parameters follow Bernoulli's law. This states that as one increases the diameter of a tube containing a liquid to flow will increase but the pressure and the speed of the liquid will decrease. The laser Doppler device accurately measured these parameters.
The test product was labeled as 10,000 ppm NO (nitric oxide). The study participants had 100 mg of the test product applied in a closed Hilltop chamber on the forearm. […]
A Moor Instruments DRT4 Laser Doppler Blood Flow Monitor (Devon, England) was used in these studies. The laser Doppler technique measured blood flow in the microcapillaries of the skin that are close to the skin surface and the blood flow in underlying arterioles and venules that help to regulate skin temperature. […]

Series [2] has as its system capillary circulation of the skin. Description: Laser Doppler circulation in five human subjects (Example 8). Conditions: positive control formulation containing 0.1% methyl nicotinate. Type of series: in vivo. The text has this:
This example illustrates delivery of nitric oxide formulations to five human subjects, using procedures and formulations similar to those discussed in Example 6. Each person served as their own control for the testing. A Moor Instruments Laser Doppler was used to determine circulation. […] The formulations used produce positive, almost immediate results when applied to the skin which, in these studies, was manifested by vasodilatation of the cutaneous vascular system.
For each subject, the following creams were applied: a negative control formulation (containing no NO), 0.010 gram of a 10,000 ppm NO formulation, 0.020 gram of a 10,000 ppm NO formulation, and a positive control formulation containing 0.1% methyl nicotinate. The formulations were prepared using procedures similar to those discussed in Example 1.

Series [3] can be described thus: Nitric oxide absorption by carriers (weight gain on bubbling NO gas). Type of series: physicochemical. Conditions: NO gas bubbled 40 hr, 25 °C. How it is done: This example illustrates one technique for preparing a composition in accordance with one embodiment of the invention. An accurate amount of a carrier (HNC 167-62) (see below) was introduced into a system. The carrier weight used in these experiments was approximately 250 g and the vessel size was 500 ml. The vessel was equipped with a mechanical stirrer, gas inlet, and gas outlet and was previously purged with argon for about an hour. The temperature of the carrier was kept at about 25-30° C. NO gas regulated at 5 psi (1 psi is about 6,900 Pa) and was then introduced at a controlled rate of about 1 bubble/s with continuous stirring. […] After 6 hours, the weight of the carrier had increased by 0.15%, by 12 hours by 0.25%, and by 24 hours by 0.56%. These increases in weight were believed to be significant considering the relative small molecular weight of NO versus the carrier. […] The carrier also can solidify upon cooling if the carrier is initially a solid at lower temperature.
Each carrier was taken in a 500 mL three necked flask equipped with a mechanical stirrer, gas inlet and a gas outlet. The system was purged with argon for one hour at room temperature (25° C.). Then nitric oxide gas was bubbled into the system. Then, nitric oxide gas was bubbled through carrier for stipulated amount of time. The changes in weight and color were noted. […]

In the case of `COC(=O)c1cccnc1` [methyl nicotinate], the “laser Doppler response of positive control” value in series [1] is recorded as “rapid response typical of the vasodilator”. For the same compound, in series [2], the vasodilatation result is listed as “vasodilatation was observed”.

With `OCCCO` [1,3-Propanediol, 1,3-propanediol], in series [3], the “% Wt. gain” value amounted to 0.09%.
